Reference: ChEMBL document CHEMBL5154870, “Discovery of novel glutaminase 1 allosteric inhibitor with 4-piperidinamine linker and aromatic heterocycles” (Eur J Med Chem, 2022)
Activity calls are given as the source filed them. No cut-off for these calls is given here.

Legend:
[1] = AUC (0 to infinity) in Sprague-Dawley rat at 10 mg/kg, ip measured for 72 hrs by LC-MS/MS analysis; format: ADME, organism-based; parameters: dose 10 mg/kg, time 72 hrs, route ip; details: in vivo
[2] = Toxicity in nude mouse xenografted with human HCT-116 cells assessed as heart damage by measuring edema and atrophy at 50 to 100 mg/kg, ip measured after 21 days by H and E staining based analysis; format: organism-based; details: in vivo, 504 h, dose 50-100 mg/kg, time 21 day
[3] = MRT (0 to infinity) in Sprague-Dawley rat at 5 mg/kg, iv measured for 72 hrs by LC-MS/MS analysis; format: ADME, organism-based; details: in vivo
[4] = Half life in Sprague-Dawley rat at 10 mg/kg, ip measured for 72 hrs by LC-MS/MS analysis; format: ADME, organism-based; details: in vivo
HCT-116 [5] = test: Induction of apoptosis in human HCT-116 cells assessed as early apoptotic cells at 200 nM measured after 24 hrs by Annexin V-FITC/PI staining based flow cytometry method (reference value: 4.65 %); format: functional
MDA-MB-436 = test: Antiproliferative activity against human MDA-MB-436 cells overexpressing GLS1 assessed as inhibition of cell proliferation measured after 72 hrs by MTT assay; format: functional, cell-based; details: MDA-MB-436, 72 h
[6] = biological target: T1, Glutaminase kidney isoform, mitochondrial (Homo sapiens) (UniProt O94925); details: filed as negative allosteric modulator
T1 sequence (whole entry): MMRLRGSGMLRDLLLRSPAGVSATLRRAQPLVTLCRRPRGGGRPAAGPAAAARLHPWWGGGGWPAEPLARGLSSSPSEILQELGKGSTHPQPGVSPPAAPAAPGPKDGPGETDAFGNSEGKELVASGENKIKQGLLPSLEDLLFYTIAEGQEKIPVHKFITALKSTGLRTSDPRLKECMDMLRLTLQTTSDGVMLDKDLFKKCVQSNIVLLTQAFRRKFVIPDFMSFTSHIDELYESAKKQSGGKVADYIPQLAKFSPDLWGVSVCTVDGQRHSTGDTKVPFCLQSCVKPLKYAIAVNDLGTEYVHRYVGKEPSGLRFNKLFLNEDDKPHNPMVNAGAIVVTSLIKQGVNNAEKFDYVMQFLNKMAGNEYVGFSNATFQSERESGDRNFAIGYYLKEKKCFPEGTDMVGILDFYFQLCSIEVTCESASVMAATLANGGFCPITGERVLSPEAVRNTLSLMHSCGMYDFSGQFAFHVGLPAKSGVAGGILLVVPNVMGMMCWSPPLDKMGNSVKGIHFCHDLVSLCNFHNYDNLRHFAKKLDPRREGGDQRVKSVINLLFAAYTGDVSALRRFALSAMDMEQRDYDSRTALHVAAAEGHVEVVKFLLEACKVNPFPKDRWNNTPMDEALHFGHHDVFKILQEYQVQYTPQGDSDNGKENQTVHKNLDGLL
Description: Binding affinity to human GLS1 assessed as stabilization of protein by measuring change in melting temperature by protein thermal shift assay

[7] = biological target: T1, Glutaminase kidney isoform, mitochondrial (Homo sapiens); details: HCT-116, filed as negative allosteric modulator, dose 100-300 nM, time 12.0 hrs
HCT-116 [8] = test: Induction of apoptosis in human HCT-116 cells assessed as late apoptotic cells at 30 nM measured after 24 hrs by Annexin V-FITC/PI staining based flow cytometry method (reference value: 3.55 %); format: functional
[9] = biological target: T1, Glutaminase kidney isoform, mitochondrial (Homo sapiens); details: HCT-116, filed as negative allosteric modulator, dose 100-300 nM, time 12.0 hrs; remark: listed apart in the source
[10] = MRT (0 to infinity) in Sprague-Dawley rat at 10 mg/kg, ip measured for 72 hrs by LC-MS/MS analysis; format: ADME, organism-based; details: in vivo
[11] = biological target: T1, Glutaminase kidney isoform, mitochondrial (Homo sapiens); details: HCT-116, filed as negative allosteric modulator, dose 100-300 nM, time 12.0 hrs; remark: listed apart in the source
[12] = Metabolic stability in human liver microsomes assessed as intrinsic clearance at 10 uM by LC-MS/MS analysis; format: ADME, Microsome; details: read-out: CLH
HCT-116 [13] = test: Induction of apoptosis in human HCT-116 cells assessed as late apoptotic cells at 50 nM measured after 24 hrs by Annexin V-FITC/PI staining based flow cytometry method (reference value: 3.55 %); format: functional
HCT-116 [14] = test: Induction of apoptosis in human HCT-116 cells assessed as early apoptotic cells at 30 nM measured after 24 hrs by Annexin V-FITC/PI staining based flow cytometry method (reference value: 4.65 %); format: functional
HCT-116 [15] = test: Antitumor activity against human HCT-116 cells xenografted in BALB/c SPF mouse assessed as tumor growth inhibition at 50 mg/kg, ip administered BID for 21 days; format: functional; details: HCT-116, 504 h, time 21 day, read-out: TGI
[16] = AUC (0 to infinity) in Sprague-Dawley rat at 5 mg/kg, iv measured for 72 hrs by LC-MS/MS analysis; format: ADME, organism-based; parameters: time 72 hrs, dose 5 mg/kg, route iv; details: in vivo
[17] = AUC (0 to t) in Sprague-Dawley rat at 5 mg/kg, iv measured for 72 hrs by LC-MS/MS analysis; format: ADME, organism-based; parameters: dose 5 mg/kg, time 72 hrs, route iv; details: in vivo
[18] = biological target: T2, Glutaminase kidney isoform, mitochondrial (Homo sapiens, UniProt O94925); test: Allosteric inhibition of human GLS1 using glutamine as substrate incubated for 60 mins by NADH/NADPH-based absorbance analysis
T2 sequence (O94925 whole entry): T1 sequence (whole entry)

[19] = Apparent clearance in Sprague-Dawley rat at 10 mg/kg, ip measured for 72 hrs by LC-MS/MS analysis; format: ADME, organism-based; details: in vivo
HCT-116 [20] = test: Induction of apoptosis in human HCT-116 cells assessed as early apoptotic cells at 50 nM measured after 24 hrs by Annexin V-FITC/PI staining based flow cytometry method (reference value: 4.65 %); format: functional
[21] = Apparent volume of distribution in Sprague-Dawley rat at 10 mg/kg, ip measured for 72 hrs by LC-MS/MS analysis; format: ADME, organism-based; details: in vivo
HCT-116 [22] = test: Induction of apoptosis in human HCT-116 cells assessed as necrotic cells at 50 nM measured after 24 hrs by Annexin V-FITC/PI staining based flow cytometry method (reference value: 0.48 %); format: functional
[23] = Metabolic stability in human liver microsomes assessed as half life at 10 uM by LC-MS/MS analysis; format: ADME, Microsome; details: liver microsomes
HCT-116 [24] = test: Antitumor activity against human HCT-116 cells xenografted in BALB/c SPF mouse assessed as tumor growth inhibition at 100 mg/kg, ip administered BID for 21 days; format: functional; details: Mus musculus, HCT-116, 504 h, time 21 day, read-out: TGI
HCT-116 [25] = test: Induction of apoptosis in human HCT-116 cells assessed as necrotic cells at 30 nM measured after 24 hrs by Annexin V-FITC/PI staining based flow cytometry method (reference value: 0.48 %); format: functional
[26] = Toxicity in nude mouse xenografted with human HCT-116 cells assessed as spleen damage by measuring edema and atrophy at 50 to 100 mg/kg, ip measured after 21 days by H and E staining based analysis; format: organism-based; details: in vivo, 504 h, dose 50-100 mg/kg, time 21 day
[27] = biological target: T1, Glutaminase kidney isoform, mitochondrial (Homo sapiens); details: HCT-116, filed as negative allosteric modulator, dose 100-300 nM, time 12.0 hrs; remark: listed apart in the source
CT26 = test: Antiproliferative activity against mouse CT26 cells overexpressing GLS1 assessed as inhibition of cell proliferation measured after 72 hrs by MTT assay; format: functional, cell-based; details: CT26, 72 h

## O=C(Cc1ccccc1)Nc1nnc(NC2CCN(c3nnc(NC(=O)c4nccn4Cc4ccc(C(F)(F)F)cc4)s3)CC2)s1
[1]
  AUC(0-inf): 3490 ng·h/mL
[2]
  Activity: Non-Toxic
[3]
  MRT inf: 4.97 h
[4]
  half-life: 8.92 h
HCT-116 [5]
  Activity: 82.49%
MDA-MB-436
  IC50: 370 nM
[6]
  ΔTm: 14.9 °C
[7]
  inhibition: Active
HCT-116 [8]
  Activity: 4.99%
[9]
  inhibition: Active
[10]
  MRT inf: 13 h
[11]
  inhibition: Active
[12]
  microsomal CLint at 10 µM: 8.95 µL/min/mg
HCT-116 [13]
  Activity: 5.4%
HCT-116 [14]
  Activity: 13.6%
HCT-116 [15]
  inhibition in vivo at 50 mg/kg: 35.5%
[16]
  AUC(0-inf): 7310 ng·h/mL
[17]
  AUC(0-t) at 72 h: 6930 ng·h/mL
[18]
  IC50: 11.9 nM
[19]
  CL/F: 48.8 mL/min/kg
HCT-116 [20]
  Activity: 23.4%
[21]
  Vd/F: 36.1 L/kg
HCT-116 [22]
  Activity: 0.01%
[23]
  half-life at 10 µM: 3.24 h
HCT-116 [24]
  inhibition in vivo at 100 mg/kg: 47.5%
HCT-116 [25]
  Activity: 0.048%
[26]
  Activity: Non-Toxic
[27]
  inhibition: Active
CT26
  IC50: 320 nM
